# Assay results reported in ChEMBL document CHEMBL4706566, “New drug approvals for 2019: Synthesis and clinical applications” (Eur J Med Chem, 2020).
# Assays:
# clinical = settings: human
# D(2) dopamine receptor [1] = biological target: T1, D(2) dopamine receptor (Homo sapiens, UniProt P14416)
# Description: Partial agonist activity at presynaptic D2 receptor (unknown origin)
# D(2) dopamine receptor [2] = biological target: T1, D(2) dopamine receptor; remark: listed apart in the source
# Description: Antagonist activity at postsynaptic D2 receptor (unknown origin)
# [3] = biological target: 5-hydroxytryptamine receptor 2A (Homo sapiens, UniProt P28223)
# Sequence of 5-hydroxytryptamine receptor 2A (P28223 whole entry): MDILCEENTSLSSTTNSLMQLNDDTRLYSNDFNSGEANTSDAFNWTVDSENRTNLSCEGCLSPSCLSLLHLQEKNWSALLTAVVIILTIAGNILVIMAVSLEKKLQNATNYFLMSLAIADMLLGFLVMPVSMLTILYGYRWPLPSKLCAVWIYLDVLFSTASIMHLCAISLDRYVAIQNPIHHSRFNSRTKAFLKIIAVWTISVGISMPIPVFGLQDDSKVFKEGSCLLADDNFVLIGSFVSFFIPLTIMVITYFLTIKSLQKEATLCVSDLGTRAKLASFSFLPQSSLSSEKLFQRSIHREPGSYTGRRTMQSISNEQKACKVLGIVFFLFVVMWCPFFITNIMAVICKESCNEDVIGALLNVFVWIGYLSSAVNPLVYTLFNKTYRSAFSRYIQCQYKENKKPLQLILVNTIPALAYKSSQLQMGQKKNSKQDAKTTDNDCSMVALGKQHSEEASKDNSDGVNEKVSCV
# Description: Antagonist activity at 5HT2A receptor (unknown origin)
# T1 sequence (P14416 whole entry): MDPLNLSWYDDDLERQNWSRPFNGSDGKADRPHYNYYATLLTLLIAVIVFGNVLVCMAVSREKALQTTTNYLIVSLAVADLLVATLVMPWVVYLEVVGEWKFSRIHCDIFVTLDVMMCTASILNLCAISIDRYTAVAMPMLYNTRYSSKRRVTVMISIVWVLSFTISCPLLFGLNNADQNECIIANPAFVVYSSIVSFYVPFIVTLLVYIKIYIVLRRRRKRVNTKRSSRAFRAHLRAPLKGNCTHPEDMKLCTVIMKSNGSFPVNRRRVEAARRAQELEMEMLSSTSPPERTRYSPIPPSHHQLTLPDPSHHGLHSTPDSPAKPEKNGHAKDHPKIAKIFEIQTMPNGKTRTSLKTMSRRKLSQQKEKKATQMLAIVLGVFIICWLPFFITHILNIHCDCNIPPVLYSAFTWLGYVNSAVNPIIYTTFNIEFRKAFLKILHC
half-life (clinical) [h],IC50 (D(2) dopamine receptor [1]) [nM],IC50 (D(2) dopamine receptor [2]) [nM],IC50 [3] [nM],Structure (SMILES)
64,–,–,–,CCn1c(=O)c2c(nc(/C=C/c3ccc(OC)c(OC)c3)n2C)n(CC)c1=O [ISTRADEFYLLINE]
–,4.1,3.2,0.54,CN1CCN2c3c(cccc31)[C@@H]1CN(CCCC(=O)c3ccc(F)cc3)CC[C@@H]12 [LUMATEPERONE]
